Each compound was assayed against T1, recombinant hRIPK2 protein (kinase domain aa 1-299-His-tagged) (Homo sapiens, UniProt O43353) (assay: RIPK2 AlphaLISA assay (displacement of bead-bound CZC-8004 from hRIPK2)). Settings: recombinant hRIPK2 kinase domain 10 nM, 2 h at 23° C.
T1 construct: kinase domain aa 1-299-His-tagged; purchased Life Technologies PR7829A
Format: binding
In short: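 His-tagged kinase domain (10 nM, as diluted) was mixed with compound (0.8% DMSO), acceptor beads bearing the probe CZC-8004 and Ni2+ donor beads. After 2 h at 23 °C, AlphaLISA signal was read. Loss of signal reflects displacement of the probe from RIPK2.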

T1 sequence (O43353 1-299): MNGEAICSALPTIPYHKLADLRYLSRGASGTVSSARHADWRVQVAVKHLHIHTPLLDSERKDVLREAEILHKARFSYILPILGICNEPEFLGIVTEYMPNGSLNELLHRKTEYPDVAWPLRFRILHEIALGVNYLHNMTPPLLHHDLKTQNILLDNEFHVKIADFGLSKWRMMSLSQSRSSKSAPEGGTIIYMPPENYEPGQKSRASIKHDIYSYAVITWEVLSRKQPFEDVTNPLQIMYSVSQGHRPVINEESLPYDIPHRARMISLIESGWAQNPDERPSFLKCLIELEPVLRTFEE

IC50	Structure (SMILES)
< 10 nM	O=C1[C@H](O)C[C@H]2COc3ccn4ncc(c4n3)-c3cc(cc(-n4cccn4)c3)NCCN12 [Example 82, (12R,14S)-12-hydroxy-4-(1H-pyrazol-1-yl)-16-oxa-7,10,20,21,24-pentaazapentacyclo[15.5.2. 1^2,6.0^10,^14.0^20,^23]pentacosa-1(23),2(25),3,5,17(24),18,21-heptaen-11-one]
< 10 nM	CO[C@@H]1C[C@H]2COc3ccn4ncc(c4n3)-c3cc(cc(-n4nc(C)cc4C)c3)NCCN2C1=O [Example 83, (12R,14S)-4-(3,5-dimethyl-1H-pyrazol-1-yl)-12-methoxy-16-oxa-7,10,20,21,24-pentaazapentacyclo[15.5.2.1^2,6.0^1°,^14.0^2°,^23]pentacosa-1(23),2(25),3,5,17(24),18,21-heptaen-11-one]
< 10 nM	CO[C@@H]1C[C@H]2COc3ccn4ncc(c4n3)-c3cc(cc(-n4ncc(C)c4C)c3)NCCN2C1=O [Example 84, (12R,14S)-4-(4,5-dimethyl-1H-pyrazol-1-yl)-12-methoxy-16-oxa-7,10,20,21,24-pentaazapentacyclo[15.5.2.1^2,6.0^1°,^14.0^2°,^23]pentacosa-1(23),2(25),3,5,17(24),18,21-heptaen-11-one]
100 to 11000 nM	CCO[C@@H]1C[C@@H]2COc3ccn4ncc(c4n3)-c3cc(cc(OC)c3)NCCN2C1=O [Example 87, (12R,14R)-12-ethoxy-4-methoxy-16-oxa-7,10,20,21,24-pentaazapentacyclo[15.5.2.1^2,6.0^10,^14.0^20,^23]pentacosa-1(23),2,4,6(25),17(24),18,21-heptaen-11-one]
< 10 nM	CC#Cc1cc2cc(c1)-c1cnn3ccc(nc13)OC[C@@H]1C[C@@H](OC)C(=O)N1CCN2 [Example 88, (12R,14S)-12-methoxy-4-(prop-1-yn-1-yl)-16-oxa-7,10,20,21,24-pentaazapentacyclo[15.5.2.1^2,6.0^1°,^14.0^2°,^23]pentacosa-1(23),2,4,6(25),17(24),18,21-heptaen-11-one]
< 10 nM	COc1cc2cc(c1)-c1cnn3ccc(nc13)OC[C@@H]1C[C@@H](OC)C(=O)N1CC(C)N2 (stereo partly drawn) [Example 89, (12R,14S)-4,12-dimethoxy-8-methyl-16-oxa-7,10,20,21,24-pentaazapentacyclo[15.5.2.1^2,6.0^1°,^14.0^2°,^23]pentacosa-1(23),2,4,6(25),17(24),18,21-heptaen-11-one]
< 10 nM	COc1cc2cc(c1)-c1cnn3ccc(nc13)OC[C@@H]1C[C@@H](O)C(=O)N1CCN2 [Example 90, (12R,14S)-12-hydroxy-4-methoxy-16-oxa-7,10,20,21,24-pentaazapentacyclo[15.5.2.1^2,6.0^1°,^14.0^2°,^23]pentacosa-1 (23),2,4,6(25),17(24),18,21-heptaen-11-one]
< 10 nM	O=C1[C@H](OCC2COC2)C[C@H]2COc3ccn4ncc(c4n3)-c3cc(F)cc(c3)NCCN12 [Example 91, (12R,14S)-4-fluoro-12-(oxetan-3-ylmethoxy)-16-oxa-7,10,20,21,24-pentaazapentacyclo[15.5.2.1^2,6.0^1°,^14.0^2°,^23]pentacosa-1(23),2(25),3,5,17(24),18,21-heptaen-11-one]
< 10 nM	[2H]C([2H])([2H])Oc1cn2ncc3c2nc1OC[C@@H]1C[C@@H](OC)C(=O)N1CCNc1cc(F)cc-3c1 [Example 92, (12R,14S)-4-fluoro-18-(^2H3)methoxy-12-methoxy-16-oxa-7,10,20,21,24-pentaazapentacyclo[15.5.2.1^2,6.0^1°,^14.0^2°,^23]pentacosa-1(23),2(25),3,5,17(24),18,21-heptaen-11-one]
100 to 11000 nM	CO[C@@H]1C[C@H]2COc3ccn4ncc(c4n3)-c3cc(cc(-c4cnn(CCO)c4)c3)NCCN2C1=O [Example 93, (12R,14S)-4-[1-(2-hydroxyethyl)-1H-pyrazol-4-yl]-12-methoxy-16-oxa-7,10,20,21,24-pentaazapentacyclo[15.5.2.1^2,6.0^1°,^14.0^2°,^23]pentacosa-1(23),2,4,6(25),17(24),18,21-heptaen-11-one]
< 10 nM	[2H]C([2H])([2H])Oc1cc2cc(c1)-c1cnn3ccc(nc13)OC[C@@H]1C[C@@H](OCC)C(=O)N1CCN2 [Example 94, (12R,14S)-12-ethoxy-4-(^2H3)methoxy-16-oxa-7,10,20,21,24-pentaazapentacyclo[15.5.2.1^2,6.0^10,^14.0^20,^23]pentacosa-1(23),2(25),3,5,17(24),18,21-heptaen-11-one]
< 10 nM	CCO[C@@H]1C[C@H]2COc3ccn4ncc(c4n3)-c3cc(O)cc(c3)NCCN2C1=O [Example 96, (12R,14S)-12-ethoxy-4-hydroxy-16-oxa-7,10,20,21,24-pentaazapentacyclo[15.5.2.1^2,6.0^1°,^14.0^2°,^23]pentacosa-1(23),2(25),3,5,17(24),18,21-heptaen-11-one]
< 10 nM	COCCO[C@@H]1C[C@H]2COc3ccn4ncc(c4n3)-c3cc(O)cc(c3)NCCN2C1=O [Example 97, (12R,14S)-4-hydroxy-12-(2-methoxyethoxy)-16-oxa-7,10,20,21,24-pentaazapentacyclo[15.5.2. 1^2,6.0^10,^14.0^20,^23]pentacosa-1(23),2,4,6(25),17(24),18,21-heptaen-11-one]
< 10 nM	COCCO[C@@H]1C[C@H]2COc3ccn4ncc(c4n3)-c3cc(cc(C(C)=O)c3)NCCN2C1=O [Example 98, (12R,14S)-4-acetyl-12-(2-methoxyethoxy)-16-oxa-7,10,20,21,24-pentaazapentacyclo[15.5.2.1^2,6.0^10,^14.0^20,^23]pentacosa-1(23),2,4,6(25),17(24),18,21-heptaen-11-one]
< 10 nM	COCCO[C@@H]1C[C@H]2COc3nc4c(cnn4cc3OC)-c3cc(cc(C(C)=O)c3)NCCN2C1=O [Example 99, (12R,14S)-4-acetyl-18-methoxy-12-(2-methoxyethoxy)-16-oxa-7,10,20,21,24-pentaazapentacyclo[15.5.2.1^2,6.0^10,^14.0^20,^23]pentacosa-1(23),2(25),3,5,17(24),18,21-heptaen-11-one]
10 to 100 nM	COCC#Cc1cc2cc(c1)-c1cnn3ccc(nc13)OC[C@@H]1C[C@@H](OCCOC)C(=O)N1CCN2 [Example 100, (12R,14S)-12-(2-methoxyethoxy)-4-(3-methoxyprop-1-yn-1-yl)-16-oxa-7,10,20,21,24-pentaazapentacyclo[15.5.2.1^2,6.0^1°,^14.0^2°,^23]pentacosa-1(23),2(25),3,5,17(24),18,21-heptaen-11-one]
100 to 11000 nM	COCCO[C@@H]1C[C@H]2COc3ccn4ncc(c4n3)-c3cc(cc(C(=O)C4CC4)c3)NCCN2C1=O [Example 101, (12R,14S)-4-cyclopropanecarbonyl-12-(2-methoxyethoxy)-16-oxa-7,10,20,21,24-pentaazapentacyclo[15.5.2.1^2,6.0^1°,^14.0^2°,^23]pentacosa-1(23),2,4,6(25),17(24),18,21-heptaen-11-one]
< 10 nM	C=Cc1cc2cc(c1)-c1cnn3ccc(nc13)OC[C@@H]1C[C@@H](OCC)C(=O)N1CCN2 [Example 102, (12R,14S)-4-ethenyl-12-ethoxy-16-oxa-7,10,20,21,24-pentaazapentacyclo[15.5.2.1^2,6.0^1°,^14.0^2°,^23]pentacosa-1(23),2,4,6(25),17(24),18,21-heptaen-11-one]
< 10 nM	O=C1[C@H](O)C[C@H]2COc3ccn4ncc(c4n3)-c3cc(F)cc(c3)NCCN12 [Example 104, (12R,14S)-4-fluoro-12-hydroxy-16-oxa-7,10,20,21,24-pentaazapentacyclo[15.5.2. 1^2,6.0^10,^14.0^20,^23]pentacosa-1(23),2(25),3,5,17(24),18,21-heptaen-11-one]
10 to 100 nM	CO[C@@H]1C[C@H]2COc3ccn4ncc(c4n3)-c3cc(cc(C(=O)NOC(C)C)c3)NCCN2C1=O [Example 107, (12R,14S)-12-methoxy-11-oxo-N-(propan-2-yloxy)-16-oxa-7,10,20,21,24-pentaazapentacyclo[15.5.2.1^2,6.0^10,^14.0^20,^23]pentacosa-1(23),2,4,6(25),17(24),18,21-heptaene-4-carboxamide]
100 to 11000 nM	CO[C@@H]1C[C@H]2COc3ccn4ncc(c4n3)-c3cc(cc(C4CC4)c3)NCCN2C1=O [Example 108, (12R,14S)-4-cyclopropyl-12-methoxy-16-oxa-7,10,20,21,24-pentaazapentacyclo[15.5.2.1^2,6.0^10,^14.0^20,^23]pentacosa-1(23),2,4,6(25),17(24),18,21-heptaen-11-one]
< 10 nM	CO[C@@H]1C[C@H]2COc3ccn4ncc(c4n3)-c3cc(cc(-c4ncno4)c3)NCCN2C1=O [Example 109, (12R,14S)-12-methoxy-4-(1,2,4-oxadiazol-5-yl)-16-oxa-7,10,20,21,24-pentaazapentacyclo[15.5.2.1^2,6.0^1°,^14.0^2°,^23]pentacosa-1(23),2(25),3,5,17(24),18,21-heptaen-11-one]
< 10 nM	[2H]C([2H])([2H])C([2H])([2H])O[C@@H]1C[C@H]2COc3ccn4ncc(c4n3)-c3cc(cc(OC)c3)NCCN2C1=O [Example 110, (12R,14S)-12-(H5)ethoxy-4-methoxy-16-oxa-7,10,20,21,24-pentaazapentacyclo[15.5.2. 1^2,6.0^10,^14.0^20,^23]pentacosa-1(23),2,4,6(25),17(24),18,21-heptaen-11-one]
< 10 nM	COCCO[C@@H]1C[C@H]2COc3nc4c(cnn4cc3C)-c3cc(cc(OC)c3)NCCN2C1=O [Example 115, (12R, 14S)-4-methoxy-12-(2-16-oxa-7,10,20,21,24-pentaazapentacyclo[15.5.2. 1^2,6.0^10,^14.0^20,^23]pentacosa-1(23),2,4,6(25),17(24),18, 21-heptaen-11-one]
10 to 100 nM	CO[C@@H]1C[C@H]2COc3ccn4ncc(c4n3)-c3cc(cc(-c4cn(C)nn4)c3)NCCN2C1=O [Example 119, (12R,14S)-12-methoxy-4-(1-methyl-1H-1,2,3-triazol-4-yl)-16-oxa-7,10,20,21,24-pentaazapentacyclo[15.5.2.1^2,6.0^1°,^14.0^2°,^23]pentacosa-1(23),2,4,6(25),17(24),18,21-heptaen-11-one]
